# Laboratory results taken from PubChem BioAssay (NCI).
# “And” between values parts separate entries of the source, which are not always exact repeats. Equal values may be shown once.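 Protocol summary: plate cells (96-well), add compound at 5 concentrations, incubate 48 h, interpolate endpoints linearly. GI50 marks 50% less growth. TGI is the concentration that stops growth completely.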
# Assays:
# Assay in all cases: NCI tumour cell line growth inhibition, 48 h
# MDA-N = tested on: MDA-N
# KM20L2 colon = tested on: KM20L2 colon
# XF 498 CNS = tested on: XF 498 CNS
# DMS 114 small cell lung = tested on: DMS 114 small cell lung
# DLD-1 colon = tested on: DLD-1 colon
# M19-MEL melanoma = tested on: M19-MEL melanoma
# RXF-631 renal = tested on: RXF-631 renal
# SNB-78 CNS = tested on: SNB-78 CNS
# HOP-18 NSCLC = tested on: HOP-18 NSCLC
# SN12K1 renal = tested on: SN12K1 renal
# P388/ADR leukemia = tested on: P388/ADR leukemia
# P388 leukemia = tested on: P388 leukemia
Structure (SMILES),TGI (KM20L2 colon) [µM],TGI (XF 498 CNS) [µM],TGI (DMS 114 small cell lung) [µM],TGI (DLD-1 colon) [µM],TGI (M19-MEL melanoma) [µM],TGI (RXF-631 renal) [µM],TGI (SNB-78 CNS) [µM],TGI (HOP-18 NSCLC) [µM],also measured
COc1ccc(CCN2C(=O)C=CC2=O)cc1OC,,,,,,,,,TGI (MDA-N): 33.5 µM
COc1cc(O)c2c(O)c3c(c4c2c1[C@]1(C4)C(C)=CCCC1(C)C)[C@H](O)[C@@]1(O)CC(=O)C(C(N)=O)=C(O)[C@@]1(O)C3=O,,,,,,,,,TGI (MDA-N): 1.72 µM
CS(=O)(=O)NNS(=O)(=O)c1cccc([N+](=O)[O-])c1,> 100,> 100,> 100,> 100,> 100,> 100,,,
Cn1c2ccccc2c(=S)c2ccccc21,,,,,,,,,TGI (MDA-N): > 100 µM
COC(=O)C1=C2CCC(=O)[C@@]2(C)C(OC(C)=O)C=CC1 (stereo partly specified),> 100,92.9,> 100,> 100,> 100,54,> 100,,
Cc1cc(NS(=O)(=O)c2ccc(N=Nc3cc(N=Nc4ccc(S(=O)(=O)Nc5cc(C)nc(C)n5)cc4)c4c(NC(=O)C(Cl)Cl)cccc4c3OC(=O)C(Cl)Cl)cc2)nc(C)n1 (tested in a mixture with another compound),60.8,,> 100,33.4,> 100,,> 100,34.1,
CC1CC2(C)ON=C(c3ccccc3)N2c2ccccc2S1 (stereo unspecified),,,,,,,,,GI50 (MDA-N): 34.2 µM
C/C(=C\C(C)COCc1ccccc1)[C@H](COCc1ccccc1)OCc1ccccc1 (stereo partly specified),> 100,> 100,> 100,,> 100,> 100,> 100,,
O=S(=O)(O)O.[NH-]C1CCCCC1[NH-].[Pt+2] (stereo unspecified),> 100,,,> 100,> 100,,> 100,,GI50 (KM20L2 colon): 35.8 µM; GI50 (DLD-1 colon): 27.8 µM; GI50 (SNB-78 CNS): > 100 µM; GI50 (M19-MEL melanoma): > 100 µM
O=c1cccccc1NCCOCCNc1cccccc1=O,> 100,,> 100,> 100,> 100,,> 100,> 100,
COc1ccc(C(=O)C(c2ccc(OC)cc2)C2(O)C(=O)Nc3ccccc32)cc1 (stereo unspecified),> 100,> 100,,> 100,> 100,> 100,> 100,,
CCC[CH2][Sn]1([CH2]CCC)[O]C(=O)c2cc(I)cc(I)c2[O]1,3.39,,1.19,2.42,2.19,,2.37,3.03,GI50 (KM20L2 colon): 1.84 µM; GI50 (DMS 114 small cell lung): 0.303 µM; GI50 (DLD-1 colon): 1.15 µM; GI50 (SNB-78 CNS): 0.536 µM; GI50 (M19-MEL melanoma): 1 µM; GI50 (HOP-18 NSCLC): 1.62 µM
Cc1ccc(NC(=O)CCC(CC(=O)C(C)(C)C)=NNC(=O)C(=O)NN)cc1C,> 100,> 100,,> 100,> 100,,,> 100,
O=C(O)C(CP(=O)(O)O)=C(Cl)Cl,> 100,> 100,,,> 100,,> 100,> 100,
CC(=O)OC(/C=C1/C=CC(=O)O1)COC(=O)c1ccccc1 (stereo unspecified),> 31.2,> 31.2,> 31.2,> 31.2,> 31.2,,> 31.2,> 31.2,
CCOC12OC3=C(CC1CC1=C(CCC1=O)O2)C(=O)CC3 (stereo unspecified),> 100,,> 100,> 100,> 100,> 100,> 100,> 100,
COC(=O)/C=C1/CCC2[C@@H](C(=O)CC3[C@]2(C)CCC[C@@]3(C)C(=O)OC)C1C (stereo partly specified),29.5,30.3,24.8,37.1,31.2,30.9,40.5,27.5,
O=c1/c(=C/c2cccc([N+](=O)[O-])c2)sc2nc3ccccc3n12,,> 100,> 100,> 100,> 100,,> 100,,
Cc1ccc(NC(=O)C(=O)C2C(=O)N(c3ccccc3)N=C2N)cc1C (stereo unspecified),> 100,> 100,> 100,> 100,> 100,> 100,> 100,> 100,

Structure (SMILES),TGI (KM20L2 colon) [µM],TGI (XF 498 CNS) [µM],TGI (DMS 114 small cell lung) [µM],TGI (DLD-1 colon) [µM],TGI (M19-MEL melanoma) [µM],TGI (RXF-631 renal) [µM],TGI (SNB-78 CNS) [µM],TGI (HOP-18 NSCLC) [µM],also measured
CCOC(=O)C12CCCC1(O)N(NC(=O)c1ccccc1)C(C)=C2C(=O)OC (stereo unspecified),> 100,,,,> 100,,> 100,> 100,
COc1ccc2c(=O)c(C)c(-c3ccccc3)oc2c1CN(C)C,> 100,> 100,> 100,> 100,> 100,,> 100,> 100,GI50 (M19-MEL melanoma): > 100 µM and 42.4 µM
COc1ccc(C(=O)OCC2OC(n3cnc4c(=S)nc[nH]c43)C(OC(=O)c3ccc(OC)cc3)C2OC(=O)c2ccc(OC)cc2)cc1 (stereo unspecified),> 100,,> 100,> 100,> 100,,,,
Cc1cc(O)cc2oc(=O)c3c(O)cc(O)cc3c12,> 100,59.3,86.1,> 100,> 100,,> 100,> 100,
CCOC(=O)/C(O)=C(/c1n[nH]c(=O)c2ccccc12)[N+](=O)[O-],> 100,,> 100,> 100,> 100,,> 100,> 100,
Cc1[nH]c2ccccc2c1C1Cc2ccccc2N1C(=O)/C=C/C=C/c1ccccc1 (stereo unspecified),> 100,,> 100,> 100,> 100,,> 100,,
COC(=O)NC1C(C)OC(OC2C/C=C(/C)C3C=CC4C(OC5CC(OC6CC(O)C(OC7CC(O)C(OC)C(C)O7)C(C)O6)C(O)C(C)O5)C(C)CC(C)C4C3(C)/C(O)=C3\C(=O)OC4(CC(C)C(CO)=CC4/C=C\2C)C3=O)CC1(C)[N+](=O)[O-] (stereo unspecified),34,27,11.5,40.4,13.1,41.7,29.8,31.4,TGI (MDA-N): 19.5 µM; TGI (SN12K1 renal): 22.6 µM; TGI (P388/ADR leukemia): 98.1 µM; TGI (P388 leukemia): 17.4 µM
CC(=O)[CH-]C(=O)c1ccccc1.CC(=O)[CH-]C(=O)c1ccccc1.CC[O-].CC[O-].[Zr+4],> 100,,,> 100,,,,> 100,GI50 (KM20L2 colon): > 100 µM; GI50 (DLD-1 colon): > 100 µM; GI50 (HOP-18 NSCLC): > 100 µM
CCCCCCCCCCCCCC(=O)O[C@H]1CC[C@H](NC(=O)[C@H](OC)[C@H](O)[C@@H](O)[C@H](O)/C=C/C(C)C)C(=O)NC1,8.34,0.305,,,8.23,,,> 51.2,GI50 (KM20L2 colon): 0.0453 µM; GI50 (DMS 114 small cell lung): < 0.001 µM; GI50 (MDA-N): 0.0165 µM; TGI (MDA-N): 44.7 µM and 12.1 µM; GI50 (M19-MEL melanoma): 0.0245 µM; GI50 (HOP-18 NSCLC): > 51.2 µM
C=C1C(=O)O[C@@H]2C[C@@]3(C)CCC[C@H](C)C3=C[C@H]12,,,,,,,,,TGI (MDA-N): 16.6 µM
CN(C)CCNC(=O)c1cc2ccccc2c2nc3ccccc3nc12,2.93,,2.43,3.59,2.67,,16.4,> 22.9,
Cc1c(Cl)ccc2c1NC(=O)C2(O)C(C(=O)c1ccccc1)c1ccccc1 (stereo unspecified),> 100,96.9,44.2,> 100,30.6,> 100,> 100,> 100,
Nc1nc(N)c(N=O)c(Nc2ccc(O)cc2)n1,,,,,,,,,TGI (MDA-N): > 100 µM
O=S1c2ccccc2N=C(c2ccc3ccccc3c2)CC1C1=CC=CCC1 (stereo unspecified),37.2,31.6,33.3,26,31.2,37,,> 100,
COc1cc(/C=C2/C(=O)N(C(=O)OC(C)C)C(Cc3cc(OC)c(OC)c(C)c3OC)C(=O)N2Cc2ccccc2)c(OC)c(C)c1OC (stereo unspecified),> 100,,> 100,> 100,> 100,,,> 100,
CCOC(C)C(/C=N/NC(N)=S)=NNC(N)=S (stereo unspecified),,,,> 100,> 100,,> 100,,
[O-]c1c2c(nn1-c1ccccc1)c1ccccc1c[n+]2Cc1ccccc1,> 100,> 100,> 100,> 100,> 100,> 100,> 100,> 100,
CCC(C)(C)C(=O)O[C@H]1C[C@@H](C)C=C2C=C[C@H](C)[C@H](CC[C@@H]3C[C@@H](O)CC(=O)O3)[C@H]21,> 30,> 30,> 30,> 30,> 30,> 30,> 30,> 30,
O=S(=O)(/C=C/c1ccc(Cl)cc1Cl)Cc1ccccc1CS(=O)(=O)/C=C/c1ccc(Cl)cc1Cl,> 100,> 100,> 100,> 100,> 100,,> 100,,
